Like-named read-outs stand apart in the source and are kept apart here.
Assays:
[1] = Chemical stability measurements (UPLC-UV); conditions: 20 μM in sodium tetraborate buffer (pH 10) with 30% MeOH, 23° C., up to 9 hours
Method: The stability of compounds under neutral or basic conditions were tested by dissolving compounds to 20 μM in PBS (pH 7.4) or sodium tetraborate buffer (pH 10) both mixed with 30% MeOH. The mixtures were shaken vigorously and injected immediately in the HPLC. The reactions were allowed to run at 23° C. for 9 hours and injections were performed once per hour. The concentrations of unreacted compounds were determined by UPLC-UV (Agilent 1260 infinity II) at 262 nm by injecting 5 μL on a PFP column (Poroshell 120 PFP, 3.0×100 mm, 2.7 micron). The compounds were eluted by a 1 mL/minute-gradient of acetonitrile in H2O from 5% to 95% over 8 minutes, then 95% for 1 minute and then 5% acetonitrile in H2O in 30 seconds.

HCT116 cells = test: Viability assay (CellTiter Blue), HCT116 cells, hypoxia vs normoxia; assay type: cell-based, human
Method: (§1) PANC-1 and HaCat cells (PANC-1: RRID:CVCL 0480, taken from a person, HaCat: RRID:CVCL 0038) were cultured in DMEM (Gibco, Cat #: 21969-035) supplemented with FBS (10%, Gibco, Cat #: A31698-02), Penicillin/Streptomycin (1%, Sigma-Aldrich, Cat #: P0781), and Ala-Gln (200 μM, Sigma-Aldrich, Cat #: G8541). BxPC3 cells (RRID:CVCL 0186, taken from a person) were cultured in RPMI 1640 (Gibco, Cat #: 61870-010) supplemented with FBS (10%) and Penicillin/Streptomycin (1%). U2OS (RRID:CVCL 0042) and HCT116 cells (RRID:CVCL 0291, ATCC CCL-247) were cultured in McCoy's 5A (Sigma cat. no. M9309) supplemented with FBS (10%) and Penicillin/Streptomycin (1%). Cells were grown under normoxic conditions in T75 flasks (Biolite, Thermo Scientific, Cat #: 130190) in a humidified atmosphere with 5% CO2 at 37° C. For hypoxic conditions cells were placed in a modular incubator chamber (MIC-101, Billups-Rothenberg) equipped with a 10-cm dish with milliQ water and flushed with CO2/N2 (5%/95%, BioNERT, AGA Cat #: 100466065) for 8 minutes at 20-25 L/minute. Cells were passaged approximately every third day by trypsination (Sigma-Aldrich, Cat #: T4049) followed by transfer of ⅕^th of the cells to a new flask. All cell cultures were handled aseptically in a laminar air flow bench and grown in sterile-filtered (Jetbiofil, Cat #: FPE204500) medium according to ATCC's recommendations. All human cell lines were correctly identified by short tandem repeat analysis and tested free of mycoplasma contamination by MycoAlert (Lonza, Cat #: LT07-218).
(§2) Cells were seeded in black 96-well plates (2000 cells/well, 75 μL/well, ThermoFisher Scientific, Cat #: 137103) in complete medium. Subsequently, the cells were allowed to adhere to the substratum overnight. The next day, compounds were serially diluted in DMSO as 200× solutions. The 200× solutions of compounds were initially diluted in complete medium to 4× solutions containing 2% DMSO. Finally, the compounds were given to cells by the addition of 25 μL/well in triplicates resulting in 1× solutions of compounds in 100 μL/well. The cells were then incubated under either normoxia or hypoxia. 90 minutes before the end of the experiment, all cells were given CellTiter Blue (20 μL/well, Promega, Cat #: G8080) and reincubated under normoxia for the remaining time of the experiment. The viability of the cells was assessed by measuring fluorescence in a plate reader (ex/em: 552±10/598±10, Tecan Spark 10M). Data were normalized to the two lowest concentrations of compound and fitted to a 4-parameter nonlinear regression in Prism 7.04 for Windows, GraphPad Software, La Jolla Calif. USA. IC50 values were extrapolated as the X value at Y=50%. Results can be found in Table 1 and the corresponding dose-response curves seen in FIGS. 12 to 17 and in FIGS. 9 to 10.

PANC-1 cells = test: Viability assay (CellTiter Blue), PANC-1 cells, hypoxia vs normoxia; assay type: cell-based, human
Method: as §1, §2

BxPC3 cells = test: Viability assay (CellTiter Blue), BxPC3 cells, hypoxia vs normoxia; assay type: cell-based, human
Method: as §1, §2

tested cell lines = test: Viability assays, summary statements across the tested cell lines; assay type: cell-based, human
Method: as §1, with “Cells were passaged approximately every third day by trypsination (Sigma-Aldrich, Cat #: T4049) followed by transfer of ⅕^th of the cells to a new flask. All cell cultures were handled aseptically in a laminar air flow bench and grown in sterile-filtered (Jetbiofil, Cat #: FPE204500) medium according to ATCC's recommendations. All human cell lines were correctly identified by short tandem repeat analysis and tested free of mycoplasma contamination by MycoAlert (Lonza, Cat #: LT07-218).” left out
Cells were seeded in black 96-well plates (2000 cells/well, 75 μL/well, ThermoFisher Scientific, Cat #: 137103) in complete medium. […] The viability of the cells was assessed by measuring fluorescence in a plate reader (ex/em: 552±10/598±10, Tecan Spark 10M). […]

Row | chemical stability at elevated pH [1] | IC50 (HCT116 cells; HCT116, hypoxic conditions, read-out: IC50 (μM) [1]) [µM] | IC50 (HCT116 cells; HCT116, normoxic conditions, read-out: IC50 (μM) [2]) [µM] | IC50 (PANC-1 cells; PANC1, hypoxic conditions, read-out: IC50 (μM) [1]) [µM] | IC50 (PANC-1 cells; PANC1, normoxic conditions, read-out: IC50 (μM) [2]) [µM] | IC50 (BxPC3 cells; BxPC3, hypoxic conditions, read-out: IC50 (μM) [1]) [µM] | IC50 (BxPC3 cells; BxPC3, normoxic conditions, read-out: IC50 (μM) [2]) [µM] | SMILES | Index [3] Selectivity index (IC50 [2]/IC50 [1]) (HCT116 cells; HCT116, normoxic IC50 / hypoxic IC50) | Index [3] Selectivity index (IC50 [2]/IC50 [1]) (PANC-1 cells; PANC1, normoxic IC50 / hypoxic IC50) | Index [3] Selectivity index (IC50 [2]/IC50 [1]) (BxPC3 cells; BxPC3, normoxic IC50 / hypoxic IC50) | selectivity indices (tested cell lines)
1 | decreased stability |  |  |  |  |  |  | C=C1/C=C/C(=O)N(C)CC(=O)N[C@@H]([C@H](O)C(N)=O)C(=O)OC([C@H](C)CCCCCC)[C@H](C)C(=O)N1 (some centres unmarked) [rakicidin D] |  |  |  | 
2 |  | 0.73 | 3 | 0.76 | 6.2 | 1.2 | 4.7 | C=C1/C=C/C(=O)N(C)CC(=O)N[C@@H](CCCCNC(=O)OC(C)(C)C)COc2cc(CCCCCCCCCCCC)ccc2C(=O)N1 [PH911, tert-butyl (S,E)-(4-(16-dodecyl-7-methyl-11-methylene-5,8,13-trioxo-2,3,4,5,6,7,8,11,12,13-decahydrobenzo[n][1]oxa[4,7,12]-triazacyclopentadecin-3-yl)butyl)carbamate] | 4.2 | 8.1 | 3.9 | four to eight-fold
